Results published in the supplement of paper PMC11061612.

What was measured:
Capivasertib = compound: C1CN(CCC1(C(=O)N[C@@H](CCO)C2=CC=C(C=C2)Cl)N)C3=NC=NC4=C3C=CN4 [Capivasertib]; details: max 10 µM
In short: (§1)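 Plates with 1536 wells received cancer cell lines in 7.5 μl of DMEM/F12 or RPMI containing 10% FBS. After 24 hours at 37°C and 5% CO2, cells were dosed for 72 hours with final DMSO typically 0.2%, and viability was read by CellTiter-Glo 2.0 luminescence scaled between blank-well and DMSO-well means. The single-agent IC50 was taken from a logistic fit of the dose responses made with a non-linear mixed effects model, that logistic curve having two parameters.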

AZD1775 = compound: C=CCn1c(=O)c2cnc(Nc3ccc(N4CCN(C)CC4)cc3)nc2n1-c1cccc(C(C)(C)O)n1 [AZD1775]; details: max 3 µM
In short: as §1

Trametinib = compound: CC(=O)Nc1cccc(-n2c(=O)n(C3CC3)c(=O)c3c(Nc4ccc(I)cc4F)n(C)c(=O)c(C)c32)c1 [Trametinib]; details: max 1 µM
In short: as §1

Palbociclib = compound: CC(=O)c1c(C)c2cnc(Nc3ccc(N4CCNCC4)cn3)nc2n(C2CCCC2)c1=O [Palbociclib]; details: max 10 µM
In short: as §1

AZD1390 = compound: CC(C)n1c(=O)n(C)c2cnc3cc(F)c(-c4ccc(OCCCN5CCCCC5)nc4)cc3c21 [AZD1390]; details: max 0.3 µM
In short: as §1

Venetoclax = compound: CC1(C)CCC(CN2CCN(c3ccc(C(=O)NS(=O)(=O)c4ccc(NCC5CCOCC5)c([N+](=O)[O-])c4)c(Oc4cnc5[nH]ccc5c4)c3)CC2)=C(c2ccc(Cl)cc2)C1 [Venetoclax]; details: max 1 µM
In short: as §1

Dasatinib = compound: CC1=C(C(=CC=C1)Cl)NC(=O)C2=CN=C(S2)NC3=CC(=NC(=N3)C)N4CCN(CC4)CCO [Dasatinib]; details: max 2 µM
In short: as §1

SG3199 = compound: CC1=CN2[C@@H](C1)C=NC3=CC(=C(C=C3C2=O)OC)OCCCCCOC4=C(C=C5C(=C4)N=C[C@@H]6CC(=CN6C5=O)C)OC [SG3199]; details: max 0.001 µM
In short: as §1

AZD2811 = compound: CCN(CCO)CCCOc1ccc2c(Nc3cc(CC(=O)Nc4cccc(F)c4)[nH]n3)ncnc2c1 [AZD2811]; details: max 1 µM
In short: as §1

SN-38 = compound: CCc1c2c(nc3ccc(O)cc13)-c1cc3c(c(=O)n1C2)COC(=O)[C@]3(O)CC [SN-38]; details: max 0.3 µM
In short: as §1

AZD0156 = compound: CN(C)CCCOc1ccc(-c2ccc3ncc4c(c3c2)n(C2CCOCC2)c(=O)n4C)cn1 [AZD0156]; details: max 3 µM
In short: as §1

AZD4320 = compound: CN(CC[C@H](CSC1=CC=CC=C1)NC2=C(C=C(C=C2)S(=O)(=O)NC(=O)C3=CC=C(C=C3)N4CCC(CC4)[C@H](C5=CC=CC=C5C6=CC=C(C=C6)Cl)O)S(=O)(=O)C(F)(F)F)CCO [AZD4320]; details: max 1 µM
In short: as §1

Alisertib = compound: COc1cc(Nc2ncc3c(n2)-c2ccc(Cl)cc2C(c2c(F)cccc2OC)=NC3)ccc1C(=O)O [Alisertib]; details: max 10 µM
In short: as §1

Gefitinib = compound: COc1cc2ncnc(Nc3ccc(F)c(Cl)c3)c2cc1OCCCN1CCOCC1 [Gefitinib]; details: max 10 µM
In short: as §1

Prexasertib = compound: COc1cccc(OCCCN)c1-c1cc(Nc2cnc(C#N)cn2)n[nH]1 [Prexasertib]; details: max 1 µM
In short: as §1

Doxorubicin = compound: COc1cccc2c1C(=O)c1c(O)c3c(c(O)c1C2=O)C[C@@](O)(C(=O)CO)C[C@@H]3O[C@H]1C[C@H](N)[C@H](O)[C@H](C)O1 [Doxorubicin]; details: max 1 µM
In short: as §1

AZD5153 = compound: COc1nnc2ccc(N3CCC(c4ccc(OCCN5CCN(C)C(=O)[C@H]5C)cc4)CC3)nn12 [AZD5153]; details: max 1 µM
In short: as §1

Lapatinib = compound: CS(=O)(=O)CCNCc1ccc(-c2ccc3ncnc(Nc4ccc(OCc5cccc(F)c5)c(Cl)c4)c3c2)o1 [Lapatinib]; details: max 10 µM
In short: as §1

AZD8186 = compound: C[C@@H](Nc1cc(F)cc(F)c1)c1cc(C(=O)N(C)C)cc2c(=O)cc(N3CCOCC3)oc12 [AZD8186]; details: max 3 µM
In short: as §1

Crizotinib = compound: C[C@@H](Oc1cc(-c2cnn(C3CCNCC3)c2)cnc1N)c1c(Cl)ccc(F)c1Cl [Crizotinib]; details: max 10 µM
In short: as §1

Savolitinib = compound: C[C@@H](c1ccc2nccn2c1)n1nnc2ncc(-c3cnn(C)c3)nc21 [Savolitinib]; details: max 1 µM
In short: as §1

AZD6738 = compound: C[C@@H]1COCCN1C2=NC(=NC(=C2)C3(CC3)[S@](=N)(=O)C)C4=C5C=CNC5=NC=C4 [AZD6738]; details: max 10 µM
In short: as §1

AZD5991 = compound: Cc1c2c(nn1C)CSCc1cc(n(C)n1)CSc1cc(c3ccccc3c1)OCCCc1c(C(=O)O)n(C)c3c-2c(Cl)ccc13 [AZD5991]; details: max 1 µM
In short: as §1

AZD7648 = compound: Cc1cc2ncnn2cc1Nc1ncc2c(n1)n(C1CCOCC1)c(=O)n2C [AZD7648]; details: max 10 µM
In short: as §1

Taselisib = compound: Cc1nc(-c2cn3c(n2)-c2ccc(-c4cnn(C(C)(C)C(N)=O)c4)cc2OCC3)n(C(C)C)n1 [Taselisib]; details: max 10 µM
In short: as §1

Selumetinib = compound: Cn1cnc2c(F)c(Nc3ccc(Br)cc3Cl)c(C(=O)NOCCO)cc21 [Selumetinib]; details: max 10 µM
In short: as §1

MK-2206 = compound: NC1(c2ccc(-c3nc4ccn5c(=O)[nH]nc5c4cc3-c3ccccc3)cc2)CCC1 [MK-2206]; details: max 10 µM
In short: as §1

Olaparib = compound: O=C(c1cc(Cc2n[nH]c(=O)c3ccccc23)ccc1F)N1CCN(C(=O)C2CC2)CC1 [Olaparib]; details: max 10 µM
In short: as §1

Row | Cell Line | IC50, cell viability 72 h (Capivasertib) | IC50, cell viability 72 h (AZD1775) | IC50, cell viability 72 h (Trametinib) | IC50, cell viability 72 h (Palbociclib) | IC50, cell viability 72 h (AZD1390) | IC50, cell viability 72 h (Venetoclax) | IC50, cell viability 72 h (Dasatinib) | IC50, cell viability 72 h (SG3199) | IC50, cell viability 72 h (AZD2811) | IC50, cell viability 72 h (SN-38) | IC50, cell viability 72 h (AZD0156) | IC50, cell viability 72 h (AZD4320) | IC50, cell viability 72 h (Alisertib) | IC50, cell viability 72 h (Gefitinib) | IC50, cell viability 72 h (Prexasertib) | IC50, cell viability 72 h (Doxorubicin) | IC50, cell viability 72 h (AZD5153) | IC50, cell viability 72 h (Lapatinib) | IC50, cell viability 72 h (AZD8186) | IC50, cell viability 72 h (Crizotinib) | IC50, cell viability 72 h (Savolitinib) | IC50, cell viability 72 h (AZD6738) | IC50, cell viability 72 h (AZD5991) | IC50, cell viability 72 h (AZD7648) | IC50, cell viability 72 h (Taselisib) | IC50, cell viability 72 h (Selumetinib) | IC50, cell viability 72 h (MK-2206) | IC50, cell viability 72 h (Olaparib)
1 | A101D (Melanoma) | > 10 µM | 0.687 µM | 0.148 µM | > 10 µM | > 0.3 µM | > 1 µM | > 2 µM | > 0.001 µM | > 1 µM | 0.0559 µM | > 3 µM | > 1 µM | 5.36 µM | > 10 µM | 0.181 µM | 0.456 µM | 0.155 µM | > 10 µM | > 3 µM | > 10 µM | > 1 µM | 4.49 µM | 0.198 µM | > 10 µM | 2.71 µM | 3.92 µM | > 10 µM | > 10 µM
2 | DMS-53 (Small Cell Lung Carcinoma) | > 10 µM | > 3 µM | > 1 µM | > 10 µM | > 0.3 µM | > 1 µM | > 2 µM | > 0.001 µM | > 1 µM | 0.037 µM | > 3 µM | 0.174 µM | > 10 µM | > 10 µM | > 1 µM | > 1 µM | > 1 µM | > 10 µM | > 3 µM | > 10 µM | > 1 µM | > 10 µM | > 1 µM | > 10 µM | > 10 µM | > 10 µM | > 10 µM | > 10 µM
3 | DU-4475 (Breast Carcinoma) | > 10 µM | 0.437 µM | 0.00118 µM | > 10 µM | > 0.3 µM | > 1 µM | > 2 µM | > 0.001 µM | > 1 µM | 0.00193 µM | > 3 µM | 0.0935 µM | 0.543 µM | > 10 µM | 0.0864 µM | 0.0323 µM | 0.21 µM | 6.76 µM | > 3 µM | 3.78 µM | > 1 µM | 1.7 µM | > 1 µM | > 10 µM | > 10 µM | 0.0556 µM | > 10 µM | 5.19 µM
4 | HCC1428 (Breast Carcinoma) | > 10 µM | > 3 µM | > 1 µM | > 10 µM | > 0.3 µM | > 1 µM | > 2 µM | > 0.001 µM | > 1 µM | > 0.3 µM | > 3 µM | > 1 µM | > 10 µM | > 10 µM | > 1 µM | > 1 µM | 0.483 µM | > 10 µM | > 3 µM | > 10 µM | > 1 µM | > 10 µM | 0.0677 µM | > 10 µM | > 10 µM | > 10 µM | > 10 µM | > 10 µM
5 | JIMT-1 (Breast Carcinoma) | > 10 µM | 1.08 µM | > 1 µM | > 10 µM | > 0.3 µM | > 1 µM | 1.08 µM | > 0.001 µM | > 1 µM | > 0.3 µM | > 3 µM | > 1 µM | > 10 µM | > 10 µM | 0.0851 µM | > 1 µM | > 1 µM | > 10 µM | > 3 µM | > 10 µM | > 1 µM | 5.64 µM | > 1 µM | > 10 µM | 4.29 µM | > 10 µM |  | > 10 µM
6 | JVM-2 (B-Cell Non-Hodgkin's Lymphoma) | 1.28 µM | 0.0983 µM | > 1 µM | 1.54 µM | > 0.3 µM | > 1 µM | 0.0446 µM | > 0.001 µM | 0.238 µM | 0.00386 µM | > 3 µM | > 1 µM | 0.203 µM | > 10 µM | 0.0108 µM | 0.0481 µM | 0.0531 µM | 9.87 µM | 0.976 µM | 5.65 µM | > 1 µM | 3.23 µM | > 1 µM | > 10 µM | 0.307 µM | > 10 µM |  | > 10 µM
7 | Jurkat (T-Lymphoblastic Leukemia) | 2.61 µM | 1.74 µM | > 1 µM | 7.66 µM | > 0.3 µM | > 1 µM | > 2 µM | > 0.001 µM | > 1 µM | 0.00797 µM | > 3 µM | 0.482 µM | 8.51 µM | > 10 µM | 0.0258 µM | 0.415 µM | 0.21 µM | > 10 µM | > 3 µM | > 10 µM | > 1 µM | 3.55 µM | 0.292 µM | > 10 µM | 5.81 µM | > 10 µM |  | > 10 µM
